Assay results as given in US20230235378A1, “LZHEIMER'S DISEASE-SPECIFIC ALTERATIONS OF PROTEIN KINASE C EPSILON (PKC-EPSILON PROTEIN LEVELS” (WEST VIRGINIA UNIVERSITY BOARD OF GOVERNORS ON BEHALF OF …, priority 2010, published 2023).
Where two headings read alike, the source gives them in different places.

What was measured:
purified PKC = biological target: T1, purified PKC (Homo sapiens, UniProt Q02156); test: PKC isozyme specificity: purified PKC preincubated with compound, activity measured radiometrically; type: biochemical
T1 construct: purchased Calbiochem
T1 sequence (Q02156 1-737): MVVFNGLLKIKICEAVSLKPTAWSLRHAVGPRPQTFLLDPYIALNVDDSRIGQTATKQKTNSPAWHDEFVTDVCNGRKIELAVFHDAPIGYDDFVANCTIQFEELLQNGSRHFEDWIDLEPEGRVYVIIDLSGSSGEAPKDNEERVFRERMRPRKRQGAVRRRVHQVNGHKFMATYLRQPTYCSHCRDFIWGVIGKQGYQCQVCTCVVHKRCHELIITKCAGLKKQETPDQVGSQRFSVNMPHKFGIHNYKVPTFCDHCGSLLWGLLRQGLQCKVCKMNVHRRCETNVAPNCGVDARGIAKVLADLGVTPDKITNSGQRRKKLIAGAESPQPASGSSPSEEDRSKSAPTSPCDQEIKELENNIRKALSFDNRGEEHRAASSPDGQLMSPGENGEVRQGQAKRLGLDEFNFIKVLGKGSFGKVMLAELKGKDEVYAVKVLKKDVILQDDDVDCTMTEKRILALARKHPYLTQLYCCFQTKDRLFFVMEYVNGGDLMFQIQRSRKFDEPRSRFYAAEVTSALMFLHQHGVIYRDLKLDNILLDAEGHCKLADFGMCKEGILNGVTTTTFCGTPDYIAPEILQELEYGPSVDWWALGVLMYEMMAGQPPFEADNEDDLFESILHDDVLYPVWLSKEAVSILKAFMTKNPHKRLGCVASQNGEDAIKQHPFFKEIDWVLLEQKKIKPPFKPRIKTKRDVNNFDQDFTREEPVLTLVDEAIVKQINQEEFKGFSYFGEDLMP
Experimental: (§1) Protein Kinase C Assay. Rat hippocampal cells were cultured and scraped in 0.2 ml homogenization buffer (20 mM Tris-HCl, pH 7.4, 50 mM NaF, 1 μg/ml leupeptin, and 0.1 mM PMSF) and homogenized by sonication in a Marsonix micro-probe sonicator (5 sec, 10 W). To measure PKC, 10 μl of cell homogenate or purified PKC isozyme (purchased from Calbiochem) was incubated for 15 min at 37° C. in the presence of 10 μM histones, 4.89 mM CaCl2, 1.2 μg/μl phosphatidyl-L-serine, 0.18 μg/μl 1,2-dioctanoyl-sn-glycerol, 10 mM MgCl2, 20 mM HEPES (pH 7.4), 0.8 mM EDTA, 4 mM EGTA, 4% glycerol, 8 μg/ml aprotinin, 8 μg/ml leupeptin, and 2 mM benzamidine. 0.5 μCi [γ-32P]ATP was added and 32P-phosphoprotein formation was measured by adsorption onto phosphocellulose as described previously. Nelson and Alkon, J. Neurochemistry. 1995; 65: 2350-57. For measurements of activation by BR-101 (DCP-LA) and similar compounds, PKC activity was measured in the absence of diacylglycerol and phosphatidylserine, as described by Kanno et al., and PKC δ, ε, η, and were measured in the absence of added EGTA and CaCl2, as described by Kanno et al., J. Lipid Res. 2006; 47: 1146-50. Low concentrations of Ca2+ are used because high Ca2+ interacts with the PKC phosphatidylserine binding site and prevents activation. For measurements of bryostatin activation, 1,2-diacylglycerol was omitted unless otherwise stated.
To determine their PKC isozyme specificity, the new compounds were preincubated with purified PKC for five minutes and the PKC activity was measured radiometrically.

Aß [1] = test: Aß production in N2a neuroblastoma cells transfected with human APPSwe/PS1D (Aß 1-42 ELISA); type: cell-based, mouse; conditions: for levels of both intracellular and secreted Aß: 24 h incubation, various concentrations
Experimental: (§2) Aß Measurement and Cell Viability Assay. Aß was measured using an Aß 1-42 human fluorimetric ELISA kit (Invitrogen) according to the manufacturer's instructions. Results were measured in a Biotek Synergy HT microplate reader. AlamarBlue and CyQuant NF (Invitrogen) according to the manufacturer's instructions.
To measure the effects of PKC activation on Aß production, we used mouse neuro2a (N2a) neuroblastoma cells transfected with human APPSwe/PS1D, which produce large quantities of Aβ. Petanceska et al., J. Neurochem. 1996; 74: 1878-84. […] With bryostatin, which activates PKC by binding to the diacylglycerol-binding site, the inhibition was biphasic, with concentrations of 20 nM or higher producing no net effect. This may be explained by the ability of this class of PKC activators to downregulate PKC when used at high concentrations.

Aß [2] = test: Degradation of exogenous monomeric Aβ-42 in SH-SY5Y cells; type: cell-based, human; conditions: 0.01 to 10 μM; 100 nM exogenous monomeric Aβ-42; 24 h
Experimental: as §2
To determine whether the reduced levels of Aß caused by PKC activators were due to inhibition of Aß synthesis or activation of Aß degradation, we applied BR-111 (DHA-CP6) (0.01 to 10 μM) and low concentrations (100 nM) of exogenous monomeric Aβ-42 to cultured SH-SY5Y cells. This concentration of Aß is too low to produce measurable toxicity or cell death. Since SH-SY5Y cells produce only trace amounts of Aβ, this experiment was an effective test of the ability of PKC activators to enhance Aß degradation. By 24 h, most of the Aß had been taken up by the cells and the concentration of Aß in the culture medium was undetectable.

[3] = Cell viability assay (alamar Blue and CyQuant staining); type: cell-based
Experimental: as §2

TACE = TACE assay in cell homogenates of neuronal cells; type: cell-based; conditions: human SH-SY5Y, N2a mouse neuroblastoma cells, primary neurons from rat hippocampus
Experimental: TACE Assay. TACE was measured by incubating 5 μl cell homogenate, 3 μl buffer (50 mM Tris-HCl 7.4 plus 25 mM NaCl plus 4% glycerol), and 1 μl of 100 μM TACE substrate IV (Aβz-LAQAVRSSSR-DPa) (Calbiochem) for 20 min at 37° in 1.5-ml polypropylene centrifuge tubes (Jin et al., Anal. Biochem. 2002; 302: 269-75). The reaction was stopped by cooling to 4° C. The samples were diluted to 1 ml and the fluorescence was rapidly measured (ex=320 nm, em=420 nm) in a Spex Fluorolog 2 spectrofluorometer.
Buxbaum et al., J. Biol. Chem. 1998; 273: 27765-67; Etcheberrigaray et al., Proc. Natl. Acad. Sci. USA. 2006: 103:8215-20. However, many of these earlier studies were carried out in fibroblasts and other non-neuronal cell types, which appear to respond differently to PKC activators than neurons.

[4] = test system: Endothelin-converting enzyme (ECE); test: ECE assay in neuroblastoma cells (fluorimetric, McaBK2); type: cell-based, human; conditions: bryostatin 0.27 nM, BR-101 1 μM, BR-111 1
Experimental: ECE Assay. SH-5757 neuroblastoma cells were incubated with bryostatin (0.27 nM), BR-101 (DCP-LA) (1 μM), and BR-111 (DHA-CP6) (1 Endothelin-converting enzyme (ECE) was measured fluorimetrically using the method of Johnson and Ahn, Anal. Biochem. 2000; 286: 112-118. A sample of cell homogenate (20 μl) was incubated in 50 mM MES-KOH, pH 6.0, 0.01% C 12E10 (polyoxyethylene-10-lauryl ether), and 15 μM McaBK2 (7-Methoxycoumarin-4-acetyl [Ala7-(2,4-Dinitrophenyl)Lys9]-bradykinin trifluoroacetate salt) (Sigma-Aldrich). After 60 min at 37° C., the reaction was quenched by adding trifluoroacetic acid to 0.5%. The sample was diluted to 1.4 ml with water and the fluorescence was measured at ex=334 nm, em=398 nm.

PKC [5] = test: PKC activity in cultured rat hippocampal H19-7/IGF-IR cells; type: cell-based
Experimental: Cell Culture. Rat hippocampal H19-7/IGF-IR cells (ATCC, Manassas, Va.) were plated onto poly-L-lysine coated plates and grown at 35° C. in DMEM/10% FCS for several days until about 50% coverage was obtained. The cells were then induced to differentiate into a neuronal phenotype by replacing the medium with 5 ml N2 medium containing 10 ng/ml basic fibroblast growth factor at 39° C. and grown in T-75 flasks at 37° C. Human SH-SY5Y neuroblastoma cells (ATCC) were cultured in 45% F 12K/45% MEM/10% FCS. Mouse N2A neuroblastoma cells were cultured in DMEM/10% FCS without glutamine. Rat hippocampal neurons from 18-day-old embryonic
as §1
PKC activators that bind to the diacylglycerol binding site, including bryostatin, gnidimacrin, and phorbol esters, produce a transient activation of PKC activity, followed by a prolonged downregulation. Nelson et al., Trends in Biochem. Sci. 2009; 34: 136-45. This was confirmed in cultured rat hippocampal cells. Incubation of rat 1119-7/IGF-IR cells with (0.04 nM and 0.2 nM) bryostatin produced a 2-fold activation that lasted 30 min, followed by a 20% downregulation that returned to baseline by 24 h (data not shown). […] This sustained activation was only observed in primary neurons.

PKC [6] = test: PKC in perforated fibers of AD transgenic mice (FIG. 8); type: in vivo
α-secretase = conditions: human fibroblasts, cited from earlier work
rats = conditions: cited from earlier work

SMILES | concentration needed to activate PKC, relative to BR-101 (DCP-LA) (purified PKC; compared with BR-101 (DCP-LA)) | activation of purified PKC (purified PKC; used as methyl esters) | levels of both intracellular and secreted Aß (Aß [1]) | concentration dependence of Aß inhibition (Aß [1]; concentrations up to 10 to 100 μM, no evidence of downregulation at higher concentrations) | reduction of cellular levels of Aß (Aß [2]) | effect on cell survival or proliferation [3] | change in TACE activity (TACE) | change in ECE activity [4] | downregulation of PKC following activation (PKC [5]; 0.04 nM and 0.2 nM) [%] | time of return of PKC to baseline (PKC [5]; 0.04 nM and 0.2 nM) [h] | activation of PKC activity (PKC [5]; 0.04 nM and 0.2 nM, data not shown) [fold] | downregulation of PKC activity (PKC [5]; 8 h, data not shown) | loss of PKC in perforated fibers (PKC [6]) | increase of initial rate of α-secretase activity (α-secretase; 10 μM) [fold] | increase of initial rate of α-secretase activity (α-secretase; 100 μM) [fold] | rate of learning (rats)
CCC1CC1CC1CC1CC1CC1CC1CC1CC1CC1CC1CC1CCC(=O)OC (stereo not shown) [BR-111, methyl-3-(2-((2-((2-((2-((2-((2-ethylcyclopropyl)methyl)cyclopropyl)methyl)cyclopropyl)methyl)-cyclopropyl)methyl)cyclopropyl)methyl)cyclopropyl)propanoate] | approx. 100 times lower | activated purified PKC to a similar extent | markedly reduced | monotonically increasing inhibition | 45-63% | no effect | only produced small increases | sustained increase |  |  |  |  |  |  |  | 
CCC/C=C/C=C/C(=O)O[C@H]1/C(=C/C(=O)OC)C[C@H]2C[C@H]([C@@H](C)O)OC(=O)C[C@H](O)C[C@@H]3C[C@H](OC(C)=O)C(C)(C)[C@](O)(C[C@@H]4C/C(=C/C(=O)OC)C[C@H](/C=C/C(C)(C)[C@]1(O)O2)O4)O3 [bryostatin] |  |  | markedly reduced |  |  |  | only produced small increases | sustained increase | 20 | ≤ 24 | 2 | at or near the baseline | prevents the loss of PKC in perforated fibers | 16 | 132 | dramatically increase
